From patent US20090221599A1, “PHTHALAZINONE PYRAZOLE DERIVATIVES, THEIR MANUFACTURE AND USE AS PHARMACEUTICAL AGENTS” (priority 2006, published 2009)

Legend:
HCT 116 cells = test: CellTiter-Glo assay in HCT 116 cells; type: cell-based; settings: HCT 116 human colon carcinoma cells, 5 days, CellTiter-Glo cell viability
Experimental: The CellTiter-Glo™ Luminescent Cell Viability Assay (Promega) is a homogeneous method of determining the number of viable cells in culture based on quantitation of the ATP present, which signals the presence of metabolically active cells.
HCT 116 cells (human colon carcinoma, ATCC-No. CC1-247) were cultivated in RPMI 1640 medium with GlutaMAX™ I (Invitrogen, Cat-No. 61870-010), 2.5% Fetal Calf Serum (FCS, Sigma Cat-No. F4135 (FBS)); 100 Units/ml penicillin/100 μg/ml streptomycin (=Pen/Strep from Invitrogen Cat. No. 15140). For the assay the cells were seeded in 384 well plates, 1000 cells per well, in the same medium. The next day the test compounds were added in various concentrations ranging from 30 μM to 0.0015 μM (10 concentrations, 1:3 diluted). After 5 days the CellTiter-Glo™ assay was done according to the instructions of the manufacturer (CellTiter-Glo™ Luminescent Cell Viability Assay, from Promega). In brief: the cell-plate was equilibrated to room temperature for approximately 30 minutes and than the CellTiter-Glo™ reagent was added. The contents were carefully mixed for 15 minutes to induce cell lysis. After 45 minutes the luminescent signal was measured in Victor 2, (scanning multiwell spectrophotometer, Wallac).
1st. day: • Medium: RPMI 1640 with GlutaMAX™ I (Invitrogen, Cat-No. 61870), 5% FCS (Sigma Cat.-No. F4135), Pen/Strep (Invitrogen, Cat No. 15140). • HCT116 (ATCC-No. CC1-247): 1000 cells in 60 μl per well of 384 well plate (Greiner 781098, μClear-plate white) • After seeding incubate plates 24 h at 37° C., 5% CO2 2nd. day: Induction (Treatment with compounds, 10 concentrations):
In order to achieve a final concentration of 30 μM as highest concentration 3.5 μl of 10 mM compound stock solution were added directly to 163 μl media. Then step e) of the dilution procedure described below, was followed.
In order to achieve the second highest to the lowest concentrations, a serial dilution with dilution steps of 1:3 was followed according to the procedure (a-d) as described here below: • a) for the second highest concentration add 10 μl of 10 mM stock solution of compound to 20 μl dimethylsulfoxide (DMSO) • b) dilute 8× 1:3 (always 10 μl to 20 μl DMSO) in this DMSO dilution row (results in 9 wells with concentrations from 3333.3 μM to 0.51 μM) • c) dilute each concentration 1:47.6 (3.5 μl compound dilution to 163 μl media) • d) add 10 μl of every concentration to 60 μl media in the cell plate resulting in final concentration of DMSO: 0.3% in every well and resulting in 10 final concentration of compounds ranging from 30 μM to 0.0015 μM. • Each compound is tested in triplicate. • Incubate 120 h (5 days) at 37° C., 5% CO2
• Add 30 μl CellTiter-Glo™ Reagent (prepared from CellTiter-Glo™ Buffer and CellTiter-Glo™ Substrate (lyophilized) purchased from Promega) per well, • shake 15 minutes at room temperature • incubate further 45 minutes at room temperature without shaking
• Victor 2 scanning multiwell spectrophotometer (Wallac), Luminescence mode (0.5 sec/read, 477 nm) • Determine IC50 using a non-linear curve fit (XLfit software (ID Business Solution Ltd., Guilford, Surrey, UK))

mutant Aurora A kinase = target: T1, mutant Aurora A kinase (Homo sapiens, UniProt O14965); test: IC50 determination for inhibitors of Aurora A (ELISA, GST-Histone H3 substrate); type: biochemical; settings: 30 μM ATP, 40 minutes, read-out: IC50 Aurora A kinase inhibition
T1 sequence (O14965 1-403): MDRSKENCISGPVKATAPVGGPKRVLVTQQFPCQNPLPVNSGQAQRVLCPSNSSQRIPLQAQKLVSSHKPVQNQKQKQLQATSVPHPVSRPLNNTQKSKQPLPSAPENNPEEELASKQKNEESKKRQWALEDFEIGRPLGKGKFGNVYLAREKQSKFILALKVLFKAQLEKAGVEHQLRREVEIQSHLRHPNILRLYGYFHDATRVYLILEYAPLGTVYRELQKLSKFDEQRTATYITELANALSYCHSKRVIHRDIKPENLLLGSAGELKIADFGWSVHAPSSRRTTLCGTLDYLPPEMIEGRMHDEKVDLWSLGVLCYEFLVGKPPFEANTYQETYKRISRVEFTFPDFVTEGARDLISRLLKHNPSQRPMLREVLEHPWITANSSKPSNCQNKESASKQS
Experimental: Aurora A is a serine threonine kinase involved in spindle assembly and chromosome segregation.
The assay is a typically ELISA-type assay where substrate (GST-Histone H3) is coupled to the assay-plate and is phosphorylated by the kinase. Phosphorylation is detected by a mouse anti-Phosphopeptid mAb and an HRP-labeled anti-mouse pAb. The assay is validated for IC50-determination.
Kinase activities were measured by Enzyme-Linked Immunosorbent Assay (ELISA): Maxisorp 384-well plates (Nunc) were coated with recombinant fusion protein comprising residues 1-15 of Histone H3 fused to the N-terminus of Glutathione-S-Transferase. Plates were then blocked with a solution of 1 mg/mL I-block (Tropix cat# T2015—highly purified form of casein) in phosphate-buffered saline. Kinase reactions were carried out in the wells of the ELISA plate by combining an appropriate amount of mutant Aurora A kinase with test compound and 30 μM ATP. The reaction buffer was 10× Kinase Buffer (Cell Signaling cat #9802) supplemented with 1 μg/mL I-block. Reactions were stopped after 40 minutes by addition of 25 mM EDTA. After washing, substrate phosphorylation was detected by addition of anti-phospho-Histone H3 (Ser 10) 6G3 mAb (Cell Signaling cat #9706) and sheep anti-mouse pAb-HRP (Amersham cat# NA931V), followed by calorimetric development with TMB (3,3′,5,5′-tetramethylbenzidine from Kirkegaard & Perry Laboratories). After readout of the absorbance, IC50 values were calculated using a non-linear curve fit (XLfit software (ID Business Solution Ltd., Guilford, Surrey, UK)).

Row | SMILES | IC50 (HCT 116 cells; Homo sapiens, HCT-116, 120 h) [nM] | IC50 (mutant Aurora A kinase) [nM] | IC50 (HCT 116 cells) [nM]
1 | CSCCOc1ccc2c(Nc3cc(C)[nH]n3)nn(C(C)C)c(=O)c2c1 [Example A-1, 2-Isopropyl-4-(5-methyl-1H-pyrazol-3-ylamino)-7-(2-methylsulfanyl-ethoxy)-2H-phthalazin-1-one] | 216 | – | –
2 | Cc1cc(Nc2nn(C(C)C)c(=O)c3cc(OCCCS(=O)(=O)N4CCOCC4)ccc23)n[nH]1 [Example A-4, 2-Isopropyl-4-(5-methyl-1H-pyrazol-3-ylamino)-7-[3-(morpholine-4-sulfonyl)-propoxy]-2H-phthalazin-1-one] | 791 | 10 | –
3 | CSCCN(C)c1ccc2c(Nc3cc(C)[nH]n3)nn(C(C)C)c(=O)c2c1 [Example B-1, 2-Isopropyl-7-[methyl-(2-methylsulfanyl-ethyl)-amino]-4-(5-methyl-1H-pyrazol-3-ylamino)-2H-phtalazin-1-one] | – | – | 92
4 | COCCN(C)c1ccc2c(Nc3cc(C)[nH]n3)nn(C(C)C)c(=O)c2c1 [Example B-2, 2-Isopropyl-7-[(2-methoxy-ethyl)-methyl-amino]-4-(5-methyl-1H-pyrazol-3-ylamino)-2H-phthalazin-1-one] | 50 to 500 | – | –
5 | COCCOc1ccc2c(Nc3cc(C)[nH]n3)nn(C(C)C)c(=O)c2c1 [Example A-2, 2-Isopropyl-7-(2-methoxy-ethoxy)-4-(5-methyl-1H-pyrazol-3-ylamino)-2H-phthalazin-1-one] | 50 to 500 | – | –
6 | Cc1cc(Nc2nn(C(C)C)c(=O)c3cc(S(=O)(=O)CCS(C)(=O)=O)ccc23)n[nH]1 [Example C-2, 2-Isopropyl-7-(2-methanesulfonyl-ethanesulfonyl)-4-(5-methyl-1H-pyrazol-3-ylamino)-2H-phthalazin-1-one] | 500 to 2500 | 10 | –
7 | Cc1cc(Nc2nn(C(C)C)c(=O)c3cc(OCCS(C)(=O)=O)ccc23)n[nH]1 [Example A-7, 2-Isopropyl-7-(2-methanesulfonyl-ethoxy)-4-(5-methyl-1H-pyrazol-3-ylamino)-2H-phthalazin-1-one] | 50 to 500 | – | –
8 | CSCCSc1ccc2c(Nc3cc(C)[nH]n3)nn(C(C)C)c(=O)c2c1 [Example C-1, 2-Isopropyl-4-(5-methyl-1H-pyrazol-3-ylamino)-7-(2-methylsulfanyl-ethylsulfanyl)-2H-phthalazin-1-one] | 296 | – | –
9 | Cc1cc(Nc2nn(C(C)C)c(=O)c3cc(OCCCS(=O)(=O)N(C)C)ccc23)n[nH]1 [Example A-3, 3-[3-Isopropyl-1-(5-methyl-1H-pyrazol-3-ylamino)-4-oxo-3,4-dihydro-phthalazin-6-yloxy]-propane-1-sulfonic acid dimethylamide] | 50 to 500 | – | –
10 | Cc1cc(Nc2nn(C(C)C)c(=O)c3cc(N(C)CCN(C)C)ccc23)n[nH]1 [Example B-3, 7-[(2-Dimethylamino-ethyl)-methyl-amino]-2-isopropyl-4-(5-methyl-1H-pyrazol-3-ylamino)-2H-phthalazin-1-one] | 50 to 500 | – | –
11 | Cc1cc(Nc2nn(C(C)C)c(=O)c3cc(OCCN(C)C)ccc23)n[nH]1 [Example A-5, 7-(2-Dimethylamino-ethoxy)-2-isopropyl-4-(5-methyl-1H-pyrazol-3-ylamino)-2H-phthalazin-1-one] | – | 22 | –

The remaining lines, values ahead:

Row | IC50 (HCT 116 cells; Homo sapiens, HCT-116, 120 h) [nM] | IC50 (mutant Aurora A kinase) [nM] | IC50 (HCT 116 cells) [nM] | SMILES
12 | 500 to 2500 | – | – | Cc1cc(Nc2nn(C(C)C)c(=O)c3cc(CS(C)(=O)=O)ccc23)n[nH]1 [Example F-2, 2-Isopropyl-7-methanesulfonylmethyl-4-(5-methyl-1H-pyrazol-3-ylamino)-2H-phthalazin-1-one]
13 | 500 to 2500 | – | – | COCC(=O)N(C)c1ccc2c(Nc3cc(C)[nH]n3)nn(Cc3cc(F)cc(F)c3)c(=O)c2c1 [Example G-2, N-[3-(3,5-Difluoro-benzyl)-1-(5-methyl-1H-pyrazol-3-ylamino)-4-oxo-3,4-dihydro-phthalazin-6-yl]-2-methoxy-N-methyl-acetamide]
14 | 50 to 500 | – | – | CSCc1ccc2c(Nc3cc(C)[nH]n3)nn(C(C)C)c(=O)c2c1 [Example F-1, 2-Isopropyl-4-(5-methyl-1H-pyrazol-3-ylamino)-7-methylsulfanylmethyl-2H-phthalazin-1-one]
15 | 50 to 500 | – | – | COCC(=O)N(C)c1ccc2c(Nc3cc(C)[nH]n3)nn(C(C)C)c(=O)c2c1 [Example G-1, N-[3-Isopropyl-1-(5-methyl-1H-pyrazol-3-ylamino)-4-oxo-3,4-dihydro-phthalazin-6-yl]-2-methoxy-N-methyl-acetamide]
16 | 500 to 2500 | 16 | – | Cc1cc(Nc2nn(C(C)C)c(=O)c3cc(COCCN4CCOCC4)ccc23)[nH]n1 [Example E-3, 2-Isopropyl-4-(5-methyl-2H-pyrazol-3-ylamino)-7-(2-morpholin-4-yl-ethoxymethyl)-2H-phthalazin-1-one]
17 | 50 to 500 | – | – | Cc1cc(Nc2nn(C(C)C)c(=O)c3cc(COCc4cccnc4)ccc23)n[nH]1 [Example E-2, 2-Isopropyl-4-(5-methyl-1H-pyrazol-3-ylamino)-7-(pyridin-3-ylmethoxymethyl)-2H-phthalazin-1-one]
18 | 50 to 500 | – | – | Cc1cc(Nc2nn(C(C)C)c(=O)c3cc(COCC4CC4)ccc23)n[nH]1 [Example E-1, 7-Cyclopropylmethoxymethyl-2-isopropyl-4-(5-methyl-1H-pyrazol-3-ylamino)-2H-phthalazin-1-one]
